# Reference: patent publication US20160368879A1, “PHOTOACID GENERATOR, AND RESIN COMPOSITION FOR PHOTOLITHOGRAPHY” (SAN-APRO LTD., priority 2013, published 2016)
# Columns and labels:
# Type in all cases: physicochemical
# [1] = Molar extinction coefficient of i-line (365 nm), UV-visible absorbance in acetonitrile; settings: 0.25 mmol/L in acetonitrile, cell length 1 cm
# In short: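 Compound at 0.25 mmol/L in acetonitrile; UV-visible absorbance scanned 200–500 nm in a 1 cm path cell. ε365 calculated from the absorbance at 365 nm.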
# [2] = Thermal decomposition temperature (TG/DTA, 2% weight reduction); settings: point of 2% weight reduction; 10° C./minute from 30° C. to 500° C.; nitrogen atmosphere
# Method: The synthesized photoacid generator was measured for the change in weight under a temperature increasing condition of 10° C./minute from 30° C. to 500° C. under a nitrogen atmosphere using a thermal gravimetric/differential thermal analyzer (TG/DTA 6200, available from Seiko Instruments Inc.), and a point where the weight was reduced by 2% was defined as the thermal decomposition temperature.
# [3] = Solvent solubility (butyl acetate, toluene or PGMEA); settings: 25° C.
# In short: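 Test-tube titration at 25° C: 0.1 g photoacid generator, solvent (butyl acetate, toluene or PGMEA) added in 0.2 g portions until fully dissolved. Scored as not dissolved if still undissolved after 20 g solvent.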
Compound,Molar extinction coefficient [1] [L/mol/cm],Thermal decomposition temperature [2] [°C],Solvent solubility PGMEA [3] [wt %],Solvent solubility Butyl acetate [3] [wt %],Solvent solubility Toluene [3] [wt %]
"CC1(C)[C@@H]2CC[C@@]1(CS(=O)(=O)ON1C(=O)c3cccc4c([Si](C)(C)C)ccc(c34)C1=O)C(=O)C2 [Example A-58, 4-trimethylsilyl-1,8-naphthalimide-(+)-10-camphorsulfonate]",5500,243,2.5,2.5,3
"CC1(C)C2CCC1(CS(=O)(=O)ON1C(=O)c3cccc4c(Cl)ccc(c34)C1=O)C(=O)C2 (stereo not drawn) [Example A-59, 4-chloro-1,8-naphthalimide-(+)-10-camphorsulfonate]",6000,228,1.5,1.5,2.5
"CC1(C)C2CCC1(CS(=O)(=O)ON1C(=O)c3cccc4c(Br)ccc(c34)C1=O)C(=O)C2 (stereo not drawn) [Example A-60, 4-bromo-1,8-naphthalimide-(+)-10-camphorsulfonate]",8500,240,1.5,1.1,2
